Experiments:
Format in all cases: in vivo
Abutilon theophrasti [1] = test: Pre-emergence herbicidal action against ABUTH; settings: visual score after 3 weeks vs untreated controls
Summary of the method: (§1)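 Greenhouse pots of sandy loam held seeds covered with soil, onto which the compound was applied before emergence. An aqueous suspension or emulsion of WP or EC was used at 600 to 800 l/ha with 0.2% wetting agent. Percent damage was judged visually at 3 weeks.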

Alopecurus myosuroides [2] = test: Pre-emergence herbicidal action against ALOMY; settings: visual score after 3 weeks vs untreated controls
Summary of the method: as §1

Amaranthus retroflexus [3] = test: Pre-emergence herbicidal action against AMARE; settings: visual score after 3 weeks vs untreated controls
Summary of the method: as §1

Avena fatua [4] = test: Pre-emergence herbicidal action against AVEFA; settings: 80 g/ha; visual score after 3 weeks vs untreated controls
Summary of the method: as §1

Echinochloa crus-galli [5] = test: Pre-emergence herbicidal action against ECHCG; settings: 80 g/ha; visual score after 3 weeks vs untreated controls
Summary of the method: as §1

Matricaria inodora [6] = test: Pre-emergence herbicidal action against MATIN; settings: visual score after 3 weeks vs untreated controls
Summary of the method: as §1

Lolium rigidum = test: Pre-emergence herbicidal action against LOLRI; settings: 80 g/ha
Description: (§2) Seeds of monocotyledonous and dicotyledonous weed plants and crop plants are laid out in sandy loam soil in wood-fiber pots and covered with soil. The compounds of the invention, formulated in the form of wettable powders (WP) or as emulsion concentrates (EC), are then applied to the surface of the covering soil in the form of an aqueous suspension or emulsion at a water application rate equivalent to 600 to 800 l/ha, with addition of 0.2% wetting agent. After the treatment, the pots are placed in a greenhouse and kept under good growth conditions for the trial plants. The damage to the test plants is scored visually after a test period of 3 weeks by comparison with untreated controls (herbicidal activity in percent (%): 100% activity=the plants have died, 0% activity=like control plants). […] The tables below illustrate, in an illustrative manner, the post-emergence herbicidal action of the compounds of the invention, the herbicidal activity being stated in percent.

Polygonum convolvulus = test: Pre-emergence herbicidal action against POLCO; settings: 80 g/ha
Description: as §2

Setaria viridis [7] = test: Pre-emergence herbicidal action against SETVI; settings: 80 g/ha
Summary of the method: as §1

Veronica persica [8] = test: Pre-emergence herbicidal action against VERPE
Summary of the method: as §1

Viola tricolor [9] = test: Pre-emergence herbicidal action against VIOTR; settings: 80 g/ha
Summary of the method: as §1

Abutilon theophrasti [10] = test: Post-emergence herbicidal action against ABUTH
Summary of the method: (§3)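 Foliar application at one-leaf stage of formulated test compounds, aqueous spray at 600–800 l/ha with 0.2% wetting agent. Greenhouse, optimal conditions, ~3 weeks; damage scored visually in % relative to untreated plants.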

Alopecurus myosuroides [11] = test: Post-emergence herbicidal action against ALOMY
Summary of the method: as §3

Amaranthus retroflexus [12] = test: Post-emergence herbicidal action against AMARE; settings: visual assessment about 3 weeks after treatment
Summary of the method: as §3

Echinochloa crus-galli [13] = test: Post-emergence herbicidal action against ECHCG; settings: visual assessment about 3 weeks after treatment
Summary of the method: as §3

Matricaria inodora [14] = test: Post-emergence herbicidal action against MATIN; settings: visual assessment about 3 weeks after treatment
Summary of the method: as §3

Pharbitis purpurea = test: Post-emergence herbicidal action against PHBPU; settings: visual assessment about 3 weeks after treatment
Summary of the method: as §3

Setaria viridis [15] = test: Post-emergence herbicidal action against SETVI; settings: visual assessment about 3 weeks after treatment
Summary of the method: as §3

Veronica persica [16] = test: Post-emergence herbicidal action against VERPE; settings: visual assessment about 3 weeks after treatment
Summary of the method: as §3

Viola tricolor [17] = test: Post-emergence herbicidal action against VIOTR
Summary of the method: as §3

Avena fatua [18] = test: Post-emergence herbicidal action against AVEFA; settings: 20 g/ha, visual assessment about 3 weeks after treatment
Protocol: Seeds of monocotyledonous and dicotyledonous weed and crop plants are laid out in sandy loam soil in wood-fiber pots, covered with soil and cultivated in a greenhouse under good growth conditions. 2 to 3 weeks after sowing, the test plants are treated at the one-leaf stage. The compounds of the invention, formulated in the form of wettable powders (WP) or as emulsion concentrates (EC), are then sprayed onto the green parts of the plants in the form of an aqueous suspension or emulsion at a water application rate equivalent to 600 to 800 l/ha, with addition of 0.2% wetting agent. After the test plants have been left to stand in the greenhouse under optimal growth conditions for about 3 weeks, the action of the preparations is assessed visually in comparison to untreated controls (herbicidal action in percent (%): 100% activity=the plants have died, 0% activity=like control plants). […] The tables below illustrate, in an illustrative manner, the post-emergence herbicidal action of the compounds of the invention, the herbicidal activity being stated in percent.

Row | SMILES | Pre-emergence action against ABUTH (Abutilon theophrasti [1]; 20 g/ha) [%] | Pre-emergence action against ABUTH (Abutilon theophrasti [1]; 80 g/ha) [%] | Pre-emergence action against ALOMY (Alopecurus myosuroides [2]; 80 g/ha) [%] | Pre-emergence action against AMARE (Amaranthus retroflexus [3]; 20 g/ha) [%] | Pre-emergence action against AMARE (Amaranthus retroflexus [3]; 80 g/ha) [%] | Pre-emergence action against AVEFA (Avena fatua [4]) [%] | Pre-emergence action against ECHCG (Echinochloa crus-galli [5]) [%] | Pre-emergence action against MATIN (Matricaria inodora [6]; 20 g/ha) [%] | Pre-emergence action against MATIN (Matricaria inodora [6]; 80 g/ha) [%] | Pre-emergence action against LOLRI (Lolium rigidum) [%] | Pre-emergence action against POLCO (Polygonum convolvulus) [%] | Pre-emergence action against SETVI (Setaria viridis [7]) [%] | Pre-emergence action against VERPE (Veronica persica [8]; 80 g/ha) [%] | Pre-emergence action against VIOTR (Viola tricolor [9]) [%] | Post-emergence action against ABUTH (Abutilon theophrasti [10]; 20 g/ha) [%] | Post-emergence action against AMARE in % (Amaranthus retroflexus [12]; 5 g/ha) [%] | Post-emergence action against AMARE in % (Amaranthus retroflexus [12]; 20 g/ha) [%] | Post-emergence action against ECHCG in % (Echinochloa crus-galli [13]; 20 g/ha) [%] | Post-emergence action against MATIN in % (Matricaria inodora [14]; 5 g/ha) [%] | Post-emergence action against MATIN in % (Matricaria inodora [14]; 20 g/ha) [%] | other results
1 | CN(CC(F)F)C(=O)c1c(C(F)F)ccc(C(=O)Nc2nnnn2C)c1Cl [Example 1-159] | 100 | 100 | 90 | 100 | 100 | 80 | 100 | 90 | 100 | 80 | 80 | 100 | 100 | 100 | 90 | 100 | 100 | 90 | 80 | 90 | Pre-emergence action against ALOMY (Alopecurus myosuroides [2]; 20 g/ha): 90%; Pre-emergence action against VERPE (Veronica persica [8]; 20 g/ha): 90%; Post-emergence action against ABUTH (Abutilon theophrasti [10]; 5 g/ha): 90%; Post-emergence action against ALOMY (Alopecurus myosuroides [11]; 5 g/ha): 90%; Post-emergence action against ALOMY (Alopecurus myosuroides [11]; 20 g/ha): 90%; Post-emergence action against ECHCG in % (Echinochloa crus-galli [13]; 5 g/ha): 80%; Post-emergence action against PHBPU in % (Pharbitis purpurea; 20 g/ha): 90%; Post-emergence action against SETVI in % (Setaria viridis [15]; 5 g/ha): 100%; Post-emergence action against SETVI in % (Setaria viridis [15]; 20 g/ha): 100%; Post-emergence action against VERPE in % (Veronica persica [16]; 5 g/ha): 80%; Post-emergence action against VERPE in % (Veronica persica [16]; 20 g/ha): 90%; Post-emergence action against VIOTR in % (Viola tricolor [17]; 5 g/ha): 80%; Post-emergence action against VIOTR in % (Viola tricolor [17]; 20 g/ha): 90%
2 | CCn1nnnc1NC(=O)c1ccc(C(F)F)c(C(=O)N(C)C2CC2)c1Cl [Example 2-156] | 100 | 100 | 90 | 100 | 100 | 90 | 100 | 100 | 100 | 80 | 90 | 100 | 90 | 100 | 90 | 100 | 100 | 90 | 90 | 90 | Pre-emergence action against ALOMY (Alopecurus myosuroides [2]; 20 g/ha): 90%; Post-emergence action against ALOMY (Alopecurus myosuroides [11]; 20 g/ha): 90%; Post-emergence action against AVEFA in % (Avena fatua [18]): 90%; Post-emergence action against PHBPU in % (Pharbitis purpurea; 5 g/ha): 80%; Post-emergence action against PHBPU in % (Pharbitis purpurea; 20 g/ha): 80%; Post-emergence action against SETVI in % (Setaria viridis [15]; 20 g/ha): 80%; Post-emergence action against VERPE in % (Veronica persica [16]; 20 g/ha): 80%; Post-emergence action against VIOTR in % (Viola tricolor [17]; 5 g/ha): 90%; Post-emergence action against VIOTR in % (Viola tricolor [17]; 20 g/ha): 90%
3 | CCn1nnnc1NC(=O)c1ccc(C(F)F)c(C(=O)N(C)CC(F)F)c1Cl [Example 2-159] | 100 | 100 | 100 | 100 | 100 | 90 | 90 | 90 | 100 | 90 | 90 | 100 | 80 | 100 | 90 | 100 | 100 | 90 | 80 | 90 | Post-emergence action against ABUTH (Abutilon theophrasti [10]; 5 g/ha): 80%; Post-emergence action against AVEFA in % (Avena fatua [18]): 90%; Post-emergence action against SETVI in % (Setaria viridis [15]; 20 g/ha): 90%; Post-emergence action against VERPE in % (Veronica persica [16]; 20 g/ha): 80%; Post-emergence action against VIOTR in % (Viola tricolor [17]; 5 g/ha): 80%; Post-emergence action against VIOTR in % (Viola tricolor [17]; 20 g/ha): 90%
